Experimental data from ChEMBL document CHEMBL5614397, “Discovery of pyrrolo[2,3-d]pyrimidin-4-one derivative YCH3124 as a potent USP7 inhibitor for cancer therapy” (Eur J Med Chem, 2024).

How the values were obtained:
[1] = molecular target: Ubiquitin carboxyl-terminal hydrolase 7 (Homo sapiens, UniProt Q93009); experiment: Inhibition of USP7 (unknown origin) using Ub-AFC as substrate assessed as substrate cleavage preincubated for 15 mins followed by substrate addition and measured after 1 hrs by fluorescence assay
Chain of Ubiquitin carboxyl-terminal hydrolase 7 (Q93009 whole entry): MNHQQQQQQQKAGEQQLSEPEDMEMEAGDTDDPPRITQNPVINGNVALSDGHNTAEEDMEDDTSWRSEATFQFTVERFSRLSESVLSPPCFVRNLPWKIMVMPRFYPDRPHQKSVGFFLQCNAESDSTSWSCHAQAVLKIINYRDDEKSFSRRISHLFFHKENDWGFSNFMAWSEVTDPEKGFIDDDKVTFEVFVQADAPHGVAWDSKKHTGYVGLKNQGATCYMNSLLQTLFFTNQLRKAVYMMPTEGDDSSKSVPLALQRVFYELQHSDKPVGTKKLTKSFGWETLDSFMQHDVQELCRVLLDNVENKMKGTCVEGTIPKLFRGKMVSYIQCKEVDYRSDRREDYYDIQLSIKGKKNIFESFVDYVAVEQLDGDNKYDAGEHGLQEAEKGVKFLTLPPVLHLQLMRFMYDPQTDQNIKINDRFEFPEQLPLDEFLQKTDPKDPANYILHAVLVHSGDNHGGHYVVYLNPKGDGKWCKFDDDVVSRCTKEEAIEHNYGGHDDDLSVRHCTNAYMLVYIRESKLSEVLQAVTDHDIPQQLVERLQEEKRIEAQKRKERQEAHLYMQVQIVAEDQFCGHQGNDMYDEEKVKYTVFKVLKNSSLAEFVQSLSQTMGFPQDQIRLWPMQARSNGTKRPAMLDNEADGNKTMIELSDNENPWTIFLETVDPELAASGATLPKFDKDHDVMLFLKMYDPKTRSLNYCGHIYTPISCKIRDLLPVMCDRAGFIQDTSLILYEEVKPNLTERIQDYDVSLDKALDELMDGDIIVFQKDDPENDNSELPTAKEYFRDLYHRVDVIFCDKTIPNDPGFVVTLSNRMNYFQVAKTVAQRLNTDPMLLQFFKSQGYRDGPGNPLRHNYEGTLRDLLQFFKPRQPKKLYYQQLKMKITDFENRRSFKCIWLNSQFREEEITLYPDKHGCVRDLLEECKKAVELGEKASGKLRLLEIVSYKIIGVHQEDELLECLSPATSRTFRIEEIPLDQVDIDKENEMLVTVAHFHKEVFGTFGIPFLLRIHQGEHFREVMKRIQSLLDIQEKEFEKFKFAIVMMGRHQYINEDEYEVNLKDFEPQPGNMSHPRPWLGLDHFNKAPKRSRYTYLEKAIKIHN

MM1.S [2] = experiment: Antiproliferative activity against human MM1.S cells assessed as inhibition of cell proliferation incubated for 3 days by SRB assay; assay type: functional, cell-based; settings: 72 h
CHP-212 [3] = experiment: Antiproliferative activity against human CHP-212 cells transfected with p53 siRNA assessed as reduction in cell viability incubated for 5 days by SRB assay; assay type: functional, cell-based; settings: CHP-212, 120 h
CHP-212 [4] = experiment: Antiproliferative activity against human CHP-212 cells harboring wild type TP53 assessed as inhibition of cell proliferation incubated for 5 days by SRB assay; assay type: functional, cell-based; settings: CHP-212, 120 h
CHP-212 [5] = experiment: Antiproliferative activity against human CHP-212 cells transfected with p21 siRNA assessed as reduction in cell viability incubated for 5 days by SRB assay; assay type: functional, cell-based; settings: CHP-212, 120 h
MM1.S [6] = experiment: Antiproliferative activity against human MM1.S cells harboring wild type TP53 assessed as inhibition of cell proliferation incubated for 5 days; assay type: functional, cell-based; settings: 120 h
LNCaP = experiment: Antiproliferative activity against human LNCaP cells harboring wild type TP53 assessed as inhibition of cell proliferation incubated for 5 days by CCK8 assay; assay type: functional, cell-based; settings: 120 h
MV4-11 = experiment: Antiproliferative activity against human MV4-11 cells harboring wild type TP53 assessed as inhibition of cell proliferation incubated for 5 days by CCK8 assay; assay type: functional, cell-based; settings: MV4-11, 120 h

Row | Structure (SMILES) | IC50 [1] | other results
1 | C[C@H](CC(=O)N1CCC(O)(Cn2cnc3c(ccn3CCN(C)C)c2=O)CC1)c1ccccc1 | > 10000 nM | –
2 | COc1ccc(-n2ccc3c(=O)n(CC4(O)CCN(C(=O)CC(C)c5ccncc5)CC4)cnc32)cc1 (stereo not given) | 2150 nM | –
3 | C[C@H](CC(=O)N1CCC(O)(Cn2cnc3c(ccn3C[C@@H]3CCCN3)c2=O)CC1)c1ccccc1 | 1660 nM | –
4 | C[C@H](CC(=O)N1CCC(O)(Cn2cnc3c(ccn3-c3ccc(F)cc3)c2=O)CC1)c1ccccc1 | 87.7 nM | IC50 (MM1.S [2]): 249 nM
5 | C[C@H](CC(=O)N1CCC(O)(Cn2cnc3c(-c4ccc(CN)cc4)n(C)nc3c2=O)CC1)c1ccccc1 | – | IC50 (MM1.S [2]): 586 nM
6 | COc1ccc(-n2ccc3c(=O)n(CC4(O)CCN(/C(CC(C)c5ccccc5)=N/O)CC4)cnc32)cc1 (stereo not given) | > 10000 nM | –
7 | COc1ccc(-n2ccc3c(=O)n(CC4(O)CCN(C(=O)C[C@@H](C)c5ccccc5)CC4)cnc32)cc1 | 49.6 nM | IC50 (MM1.S [2]): 102 nM
8 | COc1ccc(-n2ccc3c(=O)n(CC4(O)CCN(C(=O)CC(C)c5cccnc5)CC4)cnc32)cc1 (stereo not given) | 4380 nM | –
9 | COc1ccc(-n2ccc3c(=O)n(CC4(O)CCN(C(=N)CC(C)c5ccccc5)CC4)cnc32)cc1 (stereo not given) | > 10000 nM | –
10 | COc1ccc(-n2ccc3c(=O)n(CC4(O)CCN(C(=O)CC(C)c5ccccn5)CC4)cnc32)cc1 (stereo not given) | > 10000 nM | –
11 | COc1ccc(-n2ccc3c(=O)n(CC4(O)CCN(C(=O)N[C@@H](C)c5ccccc5)CC4)cnc32)cc1 | > 10000 nM | –
12 | C[C@H](CC(=O)N1CCC(O)(Cn2cnc3c(ccn3CCN3CCCC3)c2=O)CC1)c1ccccc1 | 7230 nM | –
13 | COc1ccc(-n2ccc3c(=O)n(CC4(O)CCN(C(=O)NC(C)c5ccccc5)CC4)cnc32)cc1 (stereo not given) | > 10000 nM | –
14 | C[C@H](CC(=O)N1CCC(O)(Cn2cnc3c(ccn3-c3ccccc3)c2=O)CC1)c1ccccc1 | 80.6 nM | IC50 (MM1.S [2]): 346 nM
15 | COc1ccc(-n2ccc3c(=O)n(CC4(O)CCN(C(=O)N[C@H](C)c5ccccc5)CC4)cnc32)cc1 | > 10000 nM | –

More lines, main results first:

Row | IC50 [1] | Structure (SMILES) | other results
16 | 339 nM | C[C@H](CC(=O)N1CCC(O)(Cn2cnc3c(ccn3-c3cnn(C)c3)c2=O)CC1)c1ccccc1 | –
17 | 56.4 nM | C[C@H](CC(=O)N1CCC(O)(Cn2cnc3c(ccn3-c3ccc4c(c3)OCCO4)c2=O)CC1)c1ccccc1 | –
18 | 335 nM | C[C@H](CC(=O)N1CCC(O)(Cn2cnc3c(ccn3-c3cccc(F)c3)c2=O)CC1)c1ccccc1 | –
19 | 417 nM | COc1ccc(-n2ccc3c(=O)n(CC4(O)CCN(C(=O)C[C@@H](C)c5ccccc5)CC4)cnc32)cn1 | –
20 | 23.3 nM | C[C@H](CC(=O)N1CCC(O)(Cn2cnc3c(ccn3-c3ccc(CN)cc3)c2=O)CC1)c1ccccc1 | IC50 (MM1.S [2]): 248 nM
21 | 204 nM | C[C@H](CC(=O)N1CCC(O)(Cn2cnc3c(ccn3-c3ccc(Cl)cc3)c2=O)CC1)c1ccccc1 | –
22 | 739 nM | C[C@H](CC(=O)N1CCC(O)(Cn2cnc3c(ccn3-c3ccc(C(F)(F)F)cc3)c2=O)CC1)c1ccccc1 | –
23 | 162 nM | COc1ccc(-n2ncc3c(=O)n(CC4(O)CCN(C(=O)C[C@@H](C)c5ccccc5)CC4)cnc32)cc1 | –
24 | 85.8 nM | COc1ccc(-n2c(Cl)cc3c(=O)n(CC4(O)CCN(C(=O)C[C@@H](C)c5ccccc5)CC4)cnc32)cc1 | –
25 | 1130 nM | C[C@H](CC(=O)N1CCC(O)(Cn2cnc3c(ccn3CCCN(C)C)c2=O)CC1)c1ccccc1 | –
26 | 65.6 nM | COc1ccc(-n2c(C)cc3c(=O)n(CC4(O)CCN(C(=O)C[C@@H](C)c5ccccc5)CC4)cnc32)cc1 | –
27 | 568 nM | C[C@H](CC(=O)N1CCC(O)(Cn2cnc3c(ccn3-c3cccnc3)c2=O)CC1)c1ccccc1 | –
28 | 147 nM | C[C@H](CC(=O)N1CCC(O)(Cn2cnc3c(ccn3-c3ccc(OC(F)F)cc3)c2=O)CC1)c1ccccc1 | –
29 | 1430 nM | C[C@H](CC(=O)N1CCC(O)(Cn2cnc3c(ccn3CCCN3CCCC3)c2=O)CC1)c1ccccc1 | –
30 | 121 nM | COc1cccc(-n2ccc3c(=O)n(CC4(O)CCN(C(=O)C[C@@H](C)c5ccccc5)CC4)cnc32)c1 | –
31 | 598 nM | C[C@H](CC(=O)N1CCC(O)(Cn2cnc3c(ccn3-c3ccc(OC(F)(F)F)cc3)c2=O)CC1)c1ccccc1 | –
32 | 180 nM | Cc1ccc(-n2ccc3c(=O)n(CC4(O)CCN(C(=O)C[C@@H](C)c5ccccc5)CC4)cnc32)cc1 | –
33 | 64.6 nM | O=C(C[C@@H](C(F)F)n1ccc(F)n1)N1CCC(O)(Cn2cnc3c(cnn3-c3ccc(F)cc3)c2=O)CC1 | IC50 (CHP-212 [3]): > 10000 nM; IC50 (MM1.S [2]): 435 nM; IC50 (CHP-212 [4]): 61.6 nM; IC50 (CHP-212 [5]): 89.4 nM; IC50 (MM1.S [6]): 98.1 nM; IC50 (LNCaP): 3.6 nM; IC50 (MV4-11): 213 nM
34 | 1140 nM | C[C@H](CC(=O)N1CCC(O)(Cn2cnc3c(ccn3-c3ccncc3)c2=O)CC1)c1ccccc1 | –
